Data published in patent publication US20230089530A1, “QUINUCLIDINONE ANALOGUES AS ANTICANCER AGENTS” (Newave Pharmaceutical Inc., priority 2020, published 2023).

Legend:
[1] = test system: RS4;11(G101V) cancer cells; experiment: In vitro anti-proliferation assay in RS4;11 cell line with G101V mutation (ATPlite luminescence); format: cell-based; details: about 72 hours incubation, medium supplemented with 5% FBS or 10% normal human serum
Experimental: Biological Example 1: In Vitro Anti-Proliferation Assay in BCL-2-Dependent Acute Lymphoblastic Leukemia (ALL) Cell Line RS4;11 with G101V Mutation
(§1) The RS4;11 cell line used herein was engineered to stably overexpress the G101V mutant form of human Bcl-2. The cell antiproliferation was assayed by PerkinElmer ATPlite™ Luminescence Assay System. Briefly, the RS4;11(G101V) cancer cells were plated at a density of about 1×10^4 cells per well in Costar 96-well plates, and were incubated with different concentrations of compounds for about 72 hours in medium supplemented with 5% FBS or 10% normal human serum (NHS). One lyophilized substrate solution vial was then reconstituted by adding 5 mL of substrate buffer solution, and was agitated gently until the solution was homogeneous. About 50 μL of mammalian cell lysis solution was added to 100 μL of cell suspension per well of a microplate, and the plate was shaken for about five minutes in an orbital shaker at ˜700 rpm. This procedure was used to lyse the cells and to stabilize the ATP. Next, 50 μL substrate solution was added to the wells and microplate was shaken for five minutes in an orbital shaker at ˜700 rpm. Finally, the luminescence was measured by a PerkinElmer TopCount® Microplate Scintillation Counter. Such assays, carried out with a range of doses of test compounds, allowed the determination of the cellular anti-antiproliferative IC50 of the compounds of the present invention. The following table lists the IC50 values of certain compounds of the invention.

[2] = test system: RS4;11-G101V cell line; experiment: Another in vitro anti-proliferation assay in RS4;11-G101V cell line; format: cell-based, human
Experimental: as §1
The following table lists the IC50 values of another in vitro anti-proliferation assay in RS4;11-G101V cell line.

[3] = Mice PK study; format: in vivo; details: CD-1 mouse
Experimental: The pharmacokinetics of compounds were evaluated in CD-1 mouse via Intravenous and Oral Administration. The IV dose was administered as a slow bolus in the Jugular vein, and oral doses were administered by gavage. The formulation for IV dosing was 5% DMSO in 20% HPBCD in water, and the PO formulation was 2.5% DMSO, 10% EtOH, 20% Cremphor EL, 67.5% D5W. The PK time point for the IV arm was 5, 15, 30 min, 1, 2, 4, 6, 8, 12, 24 hours post dose, and for PO arm was 15, 30 min, 1, 2, 4, 6, 8, 12, 24 hours post dose. Approximately 0.03 mL blood was collected at each time point. Blood of each sample was transferred into plastic micro centrifuge tubes containing EDTA-K2 and collect plasma within 15 min by centrifugation at 4000 g for 5 minutes in a 4° C. centrifuge. Plasma samples were stored in polypropylene tubes. The samples were stored in a freezer at −75±15° C. prior to analysis. Concentrations of compounds in the plasma samples were analyzed using a LC-MS/MS method. WinNonlin (Phoenix™, version 6.1) or other similar software was used for pharmacokinetic calculations. The following pharmacokinetic parameters were calculated, whenever possible from the plasma concentration versus time data: IV administration: C0, CL, Vd, T1/2, AUCinf, AUClast, MRT, Number of Points for Regression; PO administration: Cmax, Tmax, T1/2, AUCinf, AUClast, F %, Number of Points for Regression. The pharmacokinetic data was described using descriptive statistics such as mean, standard deviation.

SMILES	IC50 ([1]; Homo sapiens, RS4-11, 72 h)	IC50 [1]	other results
COCC1(CO)C(=O)C2(C(C)C)CCN1CC2 (stereo not shown) [Example 5, 2-(hydroxymethyl)-4-isopropyl-2-(methoxymethyl)-1-azabicyclo[2.2.2]octan-3-one]	< 5 µM	–	–
CC(C)OCC1(CO)C(=O)C2(C)CCN1CC2 (single isomer, unassigned) [Example 8(isomer 2), 2-(hydroxymethyl)-2-(isopropoxymethyl)-4-methyl-1-azabicyclo[2.2.2]octan-3-one]	–	< 5 µM	–
COCC1(CO)C(=O)C2(C(F)(F)F)CCN1CC2 (stereo not shown) [Example 10, 2-(hydroxymethyl)-2-(methoxymethyl)-4-(trifluoromethyl)-1-azabicyclo[2.2.2]octan-3-one]	> 5 µM	–	–
CC(C)OCC1(CO)C(=O)C2(C)CCN1CC2 (single isomer, unassigned) [Example 8(isomer 1), 2-(hydroxymethyl)-2-(isopropoxymethyl)-4-methyl-1-azabicyclo[2.2.2]octan-3-one]	< 5 µM	–	–
CCC12CCN(CC1)[C@](CO)(COC)C2=O (single isomer, unassigned) [Example 6(isomer 2)]	< 5 µM	–	–
CCOC[C@@]1(CO)C(=O)C2(C)CCN1CC2 (single isomer, unassigned) [Example 7(isomer 1)]	< 5 µM	–	–
COC[C@@]1(CO)C(=O)[C@@H]2CC[N@@]1[C@@H](C)C2 [Example 16, (1S,2S,4R,6S)-2-(hydroxymethyl)-2-(methoxymethyl)-6-methylquinuclidin-3-one]	–	< 5 µM	–
COCC1(CO)C(=O)C2CCN1CC2 (stereo not shown) [APR-246, reference compound]	–	< 5 µM	IC50 [2]: 1.76 µM
COC[C@@]1(CO)C(=O)C2(C)CCN1CC2 (single isomer, unassigned) [Example 3 (isomer 2)]	–	> 5 µM	–
COC[C@]1(CO)C(=O)[C@H]2CC[N@]1[C@H](C)C2 [Example 15, (1R,2R,4S,6R)-2-(hydroxymethyl)-2-(methoxymethyl)-6-methylquinuclidin-3-one]	–	< 5 µM	bioavailability (in words) [3]: excellent bioavailability; Bioavailabilty ([3]; Oral, 100 mpk): 79%; AUClas ([3]; Oral, 100 mpk, plasma): 26,093 h*ng/mL; IC50 [2]: 0.73 µM; potency compared with reference compound APR-246 [2]: more potent than the reference compound APR-246
COC[C@@]1(CO)C(=O)C2(C)CCN1CC2 (single isomer, unassigned) [Example 3 (isomer 1)]	< 5 µM	–	–
COCC1(CO)C(=O)C2(C)CCN1CC2 (stereo not shown) [Example 2, 2-(hydroxymethyl)-2-(methoxymethyl)-4-methyl-1-azabicyclo[2.2.2]octan-3-one]	< 5 µM	–	–
CCOC[C@]1(CO)C(=O)C2(C)CCN1CC2 (single isomer, unassigned) [Example 7(isomer 2)]	< 5 µM	–	–
CCC12CCN(CC1)[C@@](CO)(COC)C2=O (single isomer, unassigned) [Example 6(isomer 1)]	< 5 µM	–	–
COCC1(CO)C(=O)C2(F)CCN1CC2 (stereo not shown) [Example 9, 4-fluoro-2-(hydroxymethyl)-2-(methoxymethyl)-1-azabicyclo[2.2.2]octan-3-one]	> 5 µM	–	–
CC12CCN(CC1)C(CO)(CO)C2=O [Example 4, 2,2-bis(hydroxymethyl)-4-methyl-1-azabicyclo[2.2.2]octan-3-one]	> 5 µM	–	–
